What was measured:
[1] = Partitioning of active into washed safflower oil bodies (free oil / total oil extraction, HPLC or absorbance); type: physicochemical, safflower (Carthamus tinctorius); parameters: level of active incorporated into the oil bodies as a percentage of dry weight: concentration or dose not given beside the values; conditions: two-solvent loading, incubated overnight at 34-37° C. (CP 34-42° C.)
Text: Hexane extraction may be used to determine the amount of active present in the free oil (free oil is defined as oil not contained within oil bodies. Note that the intact oil bodies are largely resistant to extraction by hexane alone). (Tzen et al. (1997) J. Biochem 121: 762-768.) Once the free oil has been removed from the active/oil body fraction, an analysis of the total remaining oil may be performed using for example, hexane:isopropanol, chloroform, or chloroform:methanol solution extraction. The amount of active present in both the free oil fraction and the total oil fraction can be determined by a number of methods including, but not limited to, high performance liquid chromatography (HPLC), spectrophotometry, fluorescence, or activity assays depending on the active. By comparing the amount of active in both the free oil fraction and the total oil fraction the average amount of active incorporated into the intact oil bodies can be determined. In general, the efficiency of partitioning of the active into intact oil bodies can range from about 10 to about 99.9%. More typically however the efficiency of partitioning of the active into intact oil bodies will range from about 50 to about 99% and most typically from about 90 to about 99.
Washed safflower oil bodies were prepared as described in example 1. Oil bodies were preserved with 0.1 % Neolone 950 and 0.1 % glycacil L. Clobetasol propionate (CP) (Supplier-Sigma) was weighed (12-30 mg) into a clean and dry 16×100 mm screw-cap Pyrex test tube and mixed with 300 μl of isopropanol then 200 mg of safflower oil. The combined sample was vortexed and subsequently incubated at 34° C. for 20 minutes. After incubation, the sample was re-vortexed then dried under nitrogen for 20 minutes to remove the isopropanol. One ml of washed high dry weight oil bodies were added to the CP/safflower oil mixture at room temperature, centrifuged briefly to pellet contents to allow for thorough mixing, vortexed and further incubated at 34-42° C. overnight in an air tight tube to allow for incorporation of the CP and safflower oil into the oil bodies. A hexane extraction was used to determine the amount of CP present in the free oil (free oil is defined as oil not contained within oil bodies. Note that the intact oil bodies are largely resistant to extraction by hexane alone but all hexane extractions of loaded oil bodies must be corrected for damage done to intact oil bodies by the hexane through corrections using free oil values obtained from unloaded oilbodies). Three ml of hexane are added to the tubes and the tubes are shaken to mix 32 times. The samples are centrifuged in a swinging bucket clinical centrifuge at 3220×g for one minute to separate hexane from the oil body-aqueous phase. Note that the free oil will remain in the hexane layer (top). The hexane layer is removed to another tube and the hexane extraction is repeated on the remaining CP/oil body mixture. Once the majority of the solvent from the second extraction is added to the tube containing the first extract, the hexane containing tube is transferred to a heating block. The hexane was evaporated by subjecting the tubes to a gentle stream of high purity N2 gas while heating the block to 40-45° C. for at least 1.5 hours. Once the free oil was removed from the CP/oil body fraction, an analysis of the total remaining oil was performed. The remaining total oil in intact oil bodies was determined by adding 4 ml of a 3:2 hexane:isopropanol solution (HIP) and shaking to mix vigorously until all of the oil was dissolved in the HIP solvent (about 10-20 seconds). This was followed by the addition of 2.5 ml of 6.67% Na2SO4 (w/v) to the tube and the tube was shaken for another 10 seconds. Phase separation is facilitated by centrifugation for 2 minutes at 3220×g in a swinging bucket clinical centrifuge. The organic or upper phase is removed to a second test tube using a Pasteur pipette while avoiding the transfer of the aqueous phase. […]

[2] = Partitioning of phosphatidylcholine into washed safflower oil bodies (fluorescent tracer); type: physicochemical, safflower (Carthamus tinctorius); conditions: average
Procedure: Washed safflower oil bodies were prepared as described in example 1. Oil bodies were preserved with 0.1% Neolone 950 and 0.1% glycacil L. Phosphatidylcholine (PC, Supplier-Sigma) was weighed (1-300 mg) into a clean and dry 16×100 mm screw-cap Pyrex test tube. A fluorescent tracer (phosphatidic acid, Supplier-Molecular Probes) was added to the PC. The amount used was 0.05-0.25% the weight of the PC of a 1 mg/ml solution of tracer (resuspended following the manufacturer's instructions). 200 ul of isopropanol was added for every 10 mg of PC to dissolve the PC/tracer mixture. Buffer (50 mM NaH2PO4, pH 8.0) was added to the isopropanol mixture using the same buffer (50 mM NaH2PO4, pH 8.0) as the oilbodies were made in. The volume was equivalent to the volume of oilbodies being loaded. The PC/tracer/isopropanol/buffer mixture was sonicated on high for 15-30 seconds. […] Both the wash fractions and the oilbody fractions were assessed for fluorescence quantities after extraction with hexane using a total oil extraction procedure. The total oil extraction was done by adding 4 mls of a 3:2 hexane:isopropanol solution (HIP) to a measured amount of the sample and shaking to mix vigorously until all of the oil was dissolved in the HIP solvent (about 10-20 seconds). […] A known quantity of isopropanol was added to the extracted fractions and the sample was quantitated using a fluorescent spectrophotometer. […]

| level of active incorporated into the oil bodies as a percentage of dry weight [1] [%] | average % of the active added that was incorporated into the intact oil bodies [1] [%] | amount of PC loaded in to the membrane of the oil body, % of the dry weight of the oil body ([2]; isopropanol/phosphate buffer pH 8.0, 37° C., without stearylamine) [%] | amount of PC loaded in to the membrane of the oil body, % of the dry weight of the oil body ([2]; stearylamine included in PC/tracer mixture at approximately 30% of the amount of PC) [%] | Compound |
| --- | --- | --- | --- | --- |
| 0.316 | 94.7 | – | – | CCC(=O)O[C@]1(C(=O)CCl)[C@@H](C)C[C@H]2[C@@H]3CCC4=CC(=O)C=C[C@]4(C)[C@@]3(F)[C@@H](O)C[C@@]21C [clobetasol propionate, (11β,16β)-21-chloro-9-fluoro-11-hydroxy-16-methyl-17-(1-oxopropoxy)pregna-1,4-diene-3,20-dione] |
| 1.36 | 43.9 | – | – | O=C(O)Cc1ccccc1Nc1c(Cl)cccc1Cl [diclofenac] |
| 0.253 | 97.3 | – | – | O=C1c2c(O)cccc2Cc2cccc(O)c21 [dithranol, 1,8-Dihydroxy-9(10H)-anthracenone] |
| 2.43 | 90.8 | – | – | CCCCNc1ccc(C(=O)OCCN(C)C)cc1 [tetracaine, 4-(butylamino)-Benzoic acid, 2-(dimethylamino)ethyl ester] |
| – | – | 0.12 | 1.25 | Phosphatidylcholine [PC] |
